The values that follow are results of earlier work, collected in patent US5271935A, “Antibiotic, cammunocin, a process for the preparation thereof, and the use thereof as a pharmaceutical” (Hoechst Aktiengesellschaft, priority 1988, dated 1993).

The data set deals with Gram-positive bacteria. The conditions noted are these: other known antibiotics.

Turning to amphomycin, the “requirement for calcium ions to show an antibiotic effect” value is 1.0 mM.
